Measured values reported in PubChem BioAssay AID206 (DTP/NCI, 2004).
Inconclusive results are not listed.

Test system: nude mice, HT29 intrarenal xenograft, tumor weight T/C
Assay: NCI In Vivo Anticancer Drug Screen. Data for tumor model HT29;CX-1 Human Adenocarcinoma (MER+) (intrarenal inoculation) in NU/NU Swiss (nude) mice
Settings: endpoint: mean tumor weight change, higher = larger tumour
Procedure, shortened: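 T/C = treated-group value ÷ vehicle-group value, using tumor size or survival.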

[1] = dose: 50.0 mg/kg/injection, schedule: Q01DX010 (sc), vehicle: saline
[2] = dose: 200.0 mg/kg/injection, schedule: Q04DX004 (sc), vehicle: Klucel (hydroxypropylcellulose) (HPC)
[3] = dose: 400.0 mg/kg/injection, schedule: Q04DX004 (sc), vehicle: Klucel (hydroxypropylcellulose) (HPC)
[4] = dose: 800.0 mg/kg/injection, schedule: Q04DX004 (sc), vehicle: Klucel (hydroxypropylcellulose) (HPC)
[5] = dose: 150.0 mg/kg/injection, schedule: Q04DX004 (sc), vehicle: Klucel (hydroxypropylcellulose) (HPC)
[6] = dose: 300.0 mg/kg/injection, schedule: Q04DX004 (sc), vehicle: Klucel (hydroxypropylcellulose) (HPC)

CCCCCCCC(=O)N/N=C(\CO)[C@]1(O)Cc2c(O)c3c(c(O)c2[C@@H](OC2CC(N)C(O)C(C)O2)C1)C(=O)c1c(OC)cccc1C3=O (stereo partly drawn)
T/C (dose: 31.25 mg/kg/injection, schedule: Q04DX004 (sc), vehicle: water): 2 % of control
T/C (dose: 32.5 mg/kg/injection, schedule: Q04DX004 (sc), vehicle: water): 102 % of control
T/C (dose: 62.5 mg/kg/injection, schedule: Q04DX004 (sc), vehicle: water): 51 % of control
T/C (dose: 65.0 mg/kg/injection, schedule: Q04DX004 (sc), vehicle: water): 34 % of control
T/C (dose: 130.0 mg/kg/injection, schedule: Q04DX004 (sc), vehicle: water): 46 % of control
T/C (dose: 250.0 mg/kg/injection, schedule: Q04DX004 (sc), vehicle: water): 10 % of control
T/C (dose: 260.0 mg/kg/injection, schedule: Q04DX004 (sc), vehicle: water): 19 % of control

COC1C(O)CC(OC2CC(Oc3cc4cc5c(c(O)c4c(O)c3C)C(=O)[C@@H](OC3CC(OC4CC(OC6CC(C)(O)C(OC(C)=O)C(C)O6)C(O)C(C)O4)C(O)C(C)O3)[C@H]([C@H](OC)C(=O)[C@@H](O)[C@@H](C)O)C5)OC(C)C2OC(C)=O)OC1C (stereo partly drawn)
T/C (dose: 0.19 mg/kg/injection, schedule: Q04DX004 (sc), vehicle: Klucel (hydroxypropylcellulose) (HPC)): 103 % of control
T/C (dose: 0.3 mg/kg/injection, schedule: Q04DX004 (sc), vehicle: Klucel (hydroxypropylcellulose) (HPC)): 39 % of control
T/C (dose: 0.38 mg/kg/injection, schedule: Q04DX004 (sc), vehicle: Klucel (hydroxypropylcellulose) (HPC)): 85 % of control
T/C (dose: 0.75 mg/kg/injection, schedule: Q04DX004 (sc), vehicle: Klucel (hydroxypropylcellulose) (HPC)): 89 % of control
T/C (dose: 1.2 mg/kg/injection, schedule: Q04DX004 (sc), vehicle: Klucel (hydroxypropylcellulose) (HPC)): 46 % of control
T/C (dose: 1.5 mg/kg/injection, schedule: Q04DX004 (sc), vehicle: Klucel (hydroxypropylcellulose) (HPC)): 21 % of control

C[C@]12CC[C@@H]3c4ccc(OC(=O)Cc5ccc(N(CCCl)CCCl)cc5)cc4CC[C@H]3[C@@H]1CC[C@@H]2OC(=O)Cc1ccc(N(CCCl)CCCl)cc1
T/C (dose: 200.0 mg/kg/injection, schedule: Q04DX004 (sc), vehicle: saline with Tween-80): 106 % of control
T/C (dose: 400.0 mg/kg/injection, schedule: Q04DX004 (sc), vehicle: saline with Tween-80): 70 % of control
T/C (dose: 800.0 mg/kg/injection, schedule: Q04DX004 (sc), vehicle: saline with Tween-80): 113 % of control
T/C (dose: 1600.0 mg/kg/injection, schedule: Q04DX004 (sc), vehicle: saline with Tween-80): 111 % of control

C1CN2CN3CCN(CN1C3)C2
T/C (dose: 100.0 mg/kg/injection, schedule: Q01DX010 (sc), vehicle: saline): 93 % of control
T/C (dose: 200.0 mg/kg/injection, schedule: Q01DX010 (sc), vehicle: saline): 95 % of control

O=Cc1ccc(O)c(O)c1
T/C (dose: 300.0 mg/kg/injection, schedule: Q04DX004 (sc), vehicle: saline with Tween-80): 86 % of control
T/C (dose: 600.0 mg/kg/injection, schedule: Q04DX004 (sc), vehicle: saline with Tween-80): 58 % of control
T/C (dose: 1200.0 mg/kg/injection, schedule: Q04DX004 (sc), vehicle: saline with Tween-80): 100 % of control

C=C1C(=O)OCC2C(C(=O)O)=CC3C(C)C(C)=CC123 (stereo not drawn)
T/C (dose: 12.5 mg/kg/injection, schedule: Q01DX010 (sc), vehicle: Klucel (hydroxypropylcellulose) (HPC)): 71 % of control
T/C (dose: 25.0 mg/kg/injection, schedule: Q01DX010 (sc), vehicle: Klucel (hydroxypropylcellulose) (HPC)): 94 % of control

Nc1cc2[nH]cnc2c(=O)[nH]1
T/C (dose: 25.0 mg/kg/injection, schedule: Q01DX010 (sc), vehicle: saline): 62 % of control
T/C [1]: 112 % of control

c1ccc2c(NCCCCCCCCNc3c4ccccc4nc4ccccc34)c3ccccc3nc2c1
T/C (dose: 10.0 mg/kg/injection, schedule: Q01DX010 (sc), vehicle: Klucel (hydroxypropylcellulose) (HPC)): 67 % of control
T/C (dose: 20.0 mg/kg/injection, schedule: Q01DX010 (sc), vehicle: Klucel (hydroxypropylcellulose) (HPC)): 44 % of control
T/C (dose: 40.0 mg/kg/injection, schedule: Q01DX010 (sc), vehicle: Klucel (hydroxypropylcellulose) (HPC)): 82 % of control

OCC1OC(n2cnc3cncnc32)C(O)C1O (stereo not drawn)
T/C (dose: 12.5 mg/kg/injection, schedule: Q04DX004 (sc), vehicle: saline): 65 % of control
T/C (dose: 25.0 mg/kg/injection, schedule: Q04DX004 (sc), vehicle: saline): 77 % of control
T/C (dose: 50.0 mg/kg/injection, schedule: Q04DX004 (sc), vehicle: saline): 66 % of control

S=C(Nc1ccc(Cl)c(Cl)c1)N1c2ccccc2-n2cccc2C1c1cccnc1 (stereo not drawn)
T/C [2]: 52 % of control
T/C [3]: 114 % of control
T/C [4]: 83 % of control

C[C@]12CC[C@H]3[C@@H](CCC4=C[C@@H](OC5OCC(OC6OC(CO)C(O)C(O)C6O)C(O)C5O)CC[C@@]43C=O)[C@@]1(O)CCC2C1=CC(=O)OC1 (stereo partly drawn)
T/C (dose: 3.75 mg/kg/injection, schedule: Q04DX004 (sc), vehicle: Klucel (hydroxypropylcellulose) (HPC)): 67 % of control
T/C (dose: 7.5 mg/kg/injection, schedule: Q04DX004 (sc), vehicle: Klucel (hydroxypropylcellulose) (HPC)): 97 % of control
T/C (dose: 15.0 mg/kg/injection, schedule: Q04DX004 (sc), vehicle: Klucel (hydroxypropylcellulose) (HPC)): 93 % of control
T/C (dose: 30.0 mg/kg/injection, schedule: Q04DX004 (sc), vehicle: Klucel (hydroxypropylcellulose) (HPC)): 110 % of control

COc1ccc2[nH]c3ccc4cc[n+](CCN5CCC(C6CCN(CC[n+]7ccc8ccc9[nH]c%10ccc(OC)cc%10c9c8c7)CC6)CC5)cc4c3c2c1
T/C [5]: 194 % of control
T/C [6]: 189 % of control
T/C (dose: 600.0 mg/kg/injection, schedule: Q04DX004 (sc), vehicle: Klucel (hydroxypropylcellulose) (HPC)): 83 % of control

CCCCCCCCCCS(=O)CC(CO)NC(=O)/C=C/c1c(C)[nH]c(=O)[nH]c1=O (stereo not drawn)
T/C (dose: 9.38 mg/kg/injection, schedule: Q04DX004 (sc), vehicle: distilled water + Tween-80): 90 % of control
T/C (dose: 18.75 mg/kg/injection, schedule: Q04DX004 (sc), vehicle: distilled water + Tween-80): 100 % of control
T/C (dose: 37.5 mg/kg/injection, schedule: Q04DX004 (sc), vehicle: distilled water + Tween-80): 80 % of control

CN(C)CC(Cl)CCl (stereo not drawn)
T/C (dose: 75.0 mg/kg/injection, schedule: Q04DX004 (sc), vehicle: saline): 101 % of control
T/C (dose: 150.0 mg/kg/injection, schedule: Q04DX004 (sc), vehicle: saline): 117 % of control
T/C (dose: 300.0 mg/kg/injection, schedule: Q04DX004 (sc), vehicle: saline): 50 % of control

CC1=C(C)C(=O)O[C@@H]([C@](C)(O)[C@]2(O)CC[C@@]3(O)[C@@H]4C[C@H]5O[C@]56CC=CC(=O)[C@]6(C)[C@H]4CC[C@]23C)C1
T/C (dose: 450.0 mg/kg/injection, schedule: Q04DX004 (sc), vehicle: suspension in saline): 86 % of control
T/C (dose: 900.0 mg/kg/injection, schedule: Q04DX004 (sc), vehicle: suspension in saline): 76 % of control
T/C (dose: 1800.0 mg/kg/injection, schedule: Q04DX004 (sc), vehicle: suspension in saline): 102 % of control

CCOC(=O)c1ccc(NC(=O)Nc2nccs2)cc1
T/C (dose: 100.0 mg/kg/injection, schedule: Q01DX010 (sc), vehicle: saline with Tween-80): 54 % of control
T/C (dose: 200.0 mg/kg/injection, schedule: Q01DX010 (sc), vehicle: saline with Tween-80): 58 % of control
T/C (dose: 400.0 mg/kg/injection, schedule: Q01DX010 (sc), vehicle: saline with Tween-80): 74 % of control
T/C (dose: 800.0 mg/kg/injection, schedule: Q01DX010 (sc), vehicle: saline with Tween-80): 67 % of control

CCOC(=O)NC1=C(N2CC2)C(=O)C(NC(=O)OCC)=C(N2CC2)C1=O
T/C (dose: 3.13 mg/kg/injection, schedule: Q04DX004 (sc), vehicle: suspension in saline): 55 % of control

Cc1ccc(NCC2(/N=C/c3ccccc3)OC(CO)C(O)C2O)cc1 (stereo not drawn)
T/C [2]: 81 % of control
T/C [3]: 70 % of control
T/C [4]: 92 % of control
T/C (dose: 1600.0 mg/kg/injection, schedule: Q04DX004 (sc), vehicle: Klucel (hydroxypropylcellulose) (HPC)): 94 % of control

O=NN(CCCl)C(=O)Oc1ccc(OC(=O)N(CCCl)N=O)cc1
T/C (dose: 37.5 mg/kg/injection, schedule: Q04DX004 (sc), vehicle: Klucel (hydroxypropylcellulose) (HPC)): 44 % of control
T/C (dose: 75.0 mg/kg/injection, schedule: Q04DX004 (sc), vehicle: Klucel (hydroxypropylcellulose) (HPC)): 67 % of control
T/C [5]: 29 % of control
T/C [6]: 23 % of control

CN=S(=O)(OCCCCCOS(=O)(=NC)c1ccc(C)cc1)c1ccc(C)cc1 (stereo not drawn)
T/C (dose: 150.0 mg/kg/injection, schedule: Q04DX004 (sc), vehicle: saline with Tween-80): 81 % of control

C[CH2][Ge]1([CH2]C)[CH2]CC2(CCN(CCCN(C)C)C2)C[CH2]1
T/C [1]: 99 % of control

CCCCOC(=O)/C=C(\Br)C(=O)OCCCC
T/C (dose: 250.0 mg/kg/injection, schedule: Q04DX004 (sc), vehicle: saline with Tween-80): 69 % of control
T/C (dose: 500.0 mg/kg/injection, schedule: Q04DX004 (sc), vehicle: saline with Tween-80): 43 % of control
